The source of these data is patent US20230099344A1, “COMPOUNDS AND METHODS FOR THE TARGETED DEGRADATION OF IRAK-4” (Arvinas Operations, Inc., priority 2021, published 2023).

The structures appear in SMILES notation.

In this experiment the target is T1, IRAK-4 (Homo sapiens, UniProt Q9NWZ3).
T1 sequence (Q9NWZ3 1-460): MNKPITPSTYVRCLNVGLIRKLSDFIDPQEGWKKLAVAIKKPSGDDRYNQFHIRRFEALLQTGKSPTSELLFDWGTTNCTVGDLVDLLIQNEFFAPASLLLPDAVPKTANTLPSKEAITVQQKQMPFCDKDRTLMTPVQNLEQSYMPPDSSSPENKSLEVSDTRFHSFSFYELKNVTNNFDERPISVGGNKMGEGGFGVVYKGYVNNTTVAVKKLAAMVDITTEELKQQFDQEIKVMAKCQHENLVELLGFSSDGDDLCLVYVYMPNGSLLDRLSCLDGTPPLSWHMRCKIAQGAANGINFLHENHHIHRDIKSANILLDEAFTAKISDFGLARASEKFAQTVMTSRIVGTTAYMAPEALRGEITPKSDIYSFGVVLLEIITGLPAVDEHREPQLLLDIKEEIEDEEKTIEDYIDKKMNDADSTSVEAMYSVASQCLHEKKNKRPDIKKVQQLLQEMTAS
The experiment in a line: IRAK-4 ELISA, PBMC degradation. The class given is cell-based. As to conditions: treated overnight. On the set-up: endogenous in cells; host or cells: PBMC. Put shortly:
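Overnight compound treatment, started on the day of plating, of OCI-Ly10 (1×10^6/ml) and PBMC (2×10^6/ml) cultures. Lysates are collected and IRAK-4 content is read by sandwich ELISA.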
A general note: ELISA stands for enzyme-linked immunosorbent assay.

`Cn1c(=O)n(C2CCC(=O)NC2=O)c2cccc(N3CCC(CN4CCC(n5cc6cc(NC(=O)c7cnn8cccnc78)c(OCC7CC7)cc6n5)CC4)CC3)c21` (stereo not drawn) [Example 390, N-(6-(cyclopropylmethoxy)-2-(1-((1-(1-(2,6-dioxopiperidin-3-yl)-3-methyl-2-oxo-2,3-dihydro-1H-benzo[d]imidazol-4-yl)piperidin-4-yl)methyl)piperidin-4-yl)-2H-indazol-5-yl)pyrazolo[1,5-a]pyrimidine-3-carboxamide]: the DC50 was under 1 nM, the Dmax was at least 90% and the “PBMC DC90” value is “A (A represents a DC90 value <10.0 nM)”.

As to `COc1cc(N2CC(CN3CCC(N4Cc5cc(NC(=O)c6cnn7cccnc67)c(OC(C)C)nc5C4=O)CC3)C2)cc2c1C(=O)N(C1CCC(=O)NC1=O)C2=O` (stereo not drawn) [Example 397, N-(6-(1-((1-(2-(2,6-dioxopiperidin-3-yl)-7-methoxy-1,3-dioxoisoindolin-5-yl)azetidin-3-yl)methyl)piperidin-4-yl)-2-isopropoxy-7-oxo-6,7-dihydro-5H-pyrrolo[3,4-b]ipyridin-3-yl)pyrazolo [1,5-a]pyrimidine-3-carboxamide], the half-maximal degradation concentration (DC50) was under 1 nM, the “PBMC DC90” value is listed as “A (A represents a DC90 value <10.0 nM)” and the “PBMC Dmax” value is “A (A represents a Dmax value ≥90)”.

With `CC(C)Oc1nc2c(cc1NC(=O)c1cnn3cccnc13)CN(C1CCN(CCc3ccc4c(c3)CN(C3CCC(=O)NC3=O)C4=O)CC1)C2=O` (stereo not drawn) [Example 399], the DC50 lay within 1 to 5 nM; the Dmax was at least 90%; the “PBMC DC90” value is “B (B represents a DC90 value ≥10.0 nM and <25.0 nM)”.

On to `CC(C)Oc1nc2c(cc1NC(=O)c1cnn3cccnc13)CN(C1CCN(CC3CN(c4ccc5c(c4)CN(C4CCC(=O)NC4=O)C5=O)C3)CC1)C2=O` (stereo not drawn) [Example 401], for which the DC50 fell in the range of 1 to 5 nM; the greatest degradation seen (Dmax) was at least 90%; the “PBMC DC90” value is “B (B represents a DC90 value ≥10.0 nM and <25.0 nM)”.

Turning to `COc1cc(N2CC(CN3CCC(N4Cc5cc(NC(=O)c6cnn7cccnc67)c(OC(C)C)nc5C4=O)CC3)C2)cc2c1C(=O)N(C1CCC(=O)NC1=O)C2` (stereo not drawn) [Example 403], the half-maximal degradation concentration (DC50) fell in the range of 1 to 5 nM; the Dmax was at least 90%; the “PBMC DC90” value was “C (C represents a DC90 value ≥25.0 nM and <50 nM)”.

On to `O=C1CCC(N2Cc3cc(N4CC(N5CCC(N6Cc7cc(NC(=O)c8cnn9cccnc89)c(N8CCOCC8)nc7C6=O)CC5)C4)ccc3C2=O)C(=O)N1` (stereo not drawn) [Example 404, N-[6-[1-[1-[2-(2,6-dioxo-3-piperidyl)-1-oxo-isoindolin-5-yl]azetidin-3-yl]-4-piperidyl]-2-morpholino-7-oxo-5H-pyrrolo[3,4-b]pyridin-3-yl]pyrazolo[1,5-a]pyrimidine-3-carboxamide], for which the DC50 is at least 10 nM, the Dmax lay within 80 to 90% and the “PBMC DC90” value is listed as “D (D represents a DC90 value ≥50 nM)”.

Regarding `O=C1CCC(N2C(=O)c3ccc(N4CC(N5CCC(N6Cc7cc(NC(=O)c8cnn9cccnc89)c(N8CCOCC8)nc7C6=O)CC5)C4)cc3C2=O)C(=O)N1` (stereo not drawn) [Example 407], the DC50 was under 1 nM, the Dmax was at least 90% and the “PBMC DC90” value was “A (A represents a DC90 value <10.0 nM)”.

As for `O=C1CCC(N2C(=O)c3ccc(N4CC(F)(CN5CCC(n6cc7cc(NC(=O)c8cnn9cccnc89)c(C(F)F)cc7n6)CC5)C4)cc3C2=O)C(=O)N1` (stereo not drawn) [Example 408, N-[6-(difluoromethyl)-2-[1-[[1-[2-(2,6-dioxo-3-piperidyl)-1,3-dioxo-isoindolin-5-yl]-3-fluoro-azetidin-3-yl]methyl]-4-piperidyl]indazol-5-yl]pyrazolo[1,5-a]pyrimidine-3-carboxamide], the DC50 is under 1 nM, the Dmax is at least 90% and the “PBMC DC90” value is “A (A represents a DC90 value <10.0 nM)”.

With `O=C1CCC(N2C(=O)c3ccc(N4CC(F)(CN5CCC(n6cc7cc(NC(=O)c8cnn9ccc(N%10CCOCC%10)nc89)c(C(F)F)cc7n6)CC5)C4)cc3C2=O)C(=O)N1` (stereo not drawn) [Example 409], the 50% degradation concentration (DC50) was 1 to 5 nM; the Dmax was at least 90%; the “PBMC DC90” value was “B (B represents a DC90 value ≥10.0 nM and <25.0 nM)”.

Take `O=C1CCC(N2C(=O)c3ccc(N4CC(F)(CN5CCC(n6cc7cc(NC(=O)c8cnn9ccc(N%10C[C@H]%11C[C@@H]%10CO%11)nc89)c(C(F)F)cc7n6)CC5)C4)cc3C2=O)C(=O)N1` (stereo partly drawn) [Example 410]: the 50% degradation concentration (DC50) was in the range of 5 to 10 nM, the Dmax fell in the range of 80 to 90% and the “PBMC DC90” value was “D (D represents a DC90 value ≥50 nM)”.

On to `CC(C)Oc1cc2nn(C3CCN(CC4(F)CN(c5ccc6c(n5)C(=O)N(C5CCC(=O)NC5=O)C6=O)C4)CC3)cc2cc1NC(=O)c1cnn2cccnc12` (stereo not drawn) [Example 411, N-(2-(1-((1-(6-(2,6-dioxopiperidin-3-yl)-5,7-dioxo-6,7-dihydro-5H-pyrrolo[3,4-b]pyridin-2-yl)-3-fluoroazetidin-3-yl)methyl)piperidin-4-yl)-6-isopropoxy-2H-indazol-5-yl)pyrazolo[1,5-a]pyrimidine-3-carboxamide], for which the DC50 lay within 5 to 10 nM, the Dmax lay within 80 to 90% and the “PBMC DC90” value was “D (D represents a DC90 value ≥50 nM)”.

Consider `O=C1CCC(N2C(=O)c3ccc(N4CC(CN5CCC([C@H](F)CN6Cc7cc(NC(=O)c8cnn9cccnc89)c(N8CCOCC8)cc7C6=O)CC5)C4)cc3C2=O)C(=O)N1` (stereo partly drawn) [Example 412, N-(2-((2S)-2-(1-((1-(2-(2,6-dioxopiperidin-3-yl)-1,3-dioxoisoindolin-5-yl)azetidin-3-yl)methyl)piperidin-4-yl)-2-fluoroethyl)-6-morpholino-1-oxoisoindolin-5-yl)pyrazolo[1,5-a]pyrimidine-3-carboxamide], for which the half-maximal degradation concentration (DC50) is 1 to 5 nM, the Dmax lay within 80 to 90% and the “PBMC DC90” value is “A (A represents a DC90 value <10.0 nM)”.

Turning to `O=C1CCC(N2C(=O)c3ccc(N4CC(F)(CN5CCC([C@H](F)CN6Cc7cc(NC(=O)c8cnn9cccnc89)c(N8CCOCC8)cc7C6=O)CC5)C4)cc3C2=O)C(=O)N1` (stereo partly drawn) [Example 413], the DC50 fell in the range of 1 to 5 nM; the Dmax was 80 to 90%; the “PBMC DC90” value was “B (B represents a DC90 value ≥10.0 nM and <25.0 nM)”.

For the molecule `CC(C)Oc1cc2nn(C[C@@H](F)C3CCN(CC4(F)CN(c5ccc6c(c5)C(=O)N(C5CCC(=O)NC5=O)C6=O)C4)CC3)cc2cc1NC(=O)c1cnn2cccnc12` (stereo partly drawn) [Example 414], the DC50 lay within 1 to 5 nM; the Dmax is 80 to 90%; the “PBMC DC90” value was “B (B represents a DC90 value ≥10.0 nM and <25.0 nM)”.

On to `CC(C)Oc1cc2nn(C[C@@H](F)C3CCN(CC4CN(c5ccc6c(c5)C(=O)N(C5CCC(=O)NC5=O)C6=O)C4)CC3)cc2cc1NC(=O)c1cnn2cccnc12` (stereo partly drawn) [Example 415], for which the DC50 lay in the range of 1 to 5 nM, the Dmax was in the range of 80 to 90% and the “PBMC DC90” value is “A (A represents a DC90 value <10.0 nM)”.

With `CC(C)Oc1nc2nn(C3CCN(CC4(F)CN(c5ccc6c(c5)CN(C5CCC(=O)NC5=O)C6=O)C4)CC3)cc2cc1NC(=O)c1cnn2cccnc12` (stereo not drawn) [Example 416, N-[2-[1-[[1-[2-(2,6-dioxo-3-piperidyl)-1-oxo-isoindolin-5-yl]-3-fluoro-azetidin-3-yl]methyl]-4-piperidyl]-6-isopropoxy-pyrazolo[3,4-b]pyridin-5-yl]pyrazolo[1,5-a]pyrimidine-3-carboxamide], the DC50 was under 1 nM, the Dmax was in the range of 80 to 90% and the “PBMC DC90” value is on record as “A (A represents a DC90 value <10.0 nM)”.

With `O=C1CCC(N2C(=O)c3ccc(N4CC5(CCCN(C6CCC(n7cc8cc(NC(=O)c9cnn%10cccnc9%10)c(OCC9CC9)cc8n7)CC6)C5)C4)cc3C2=O)C(=O)N1` (stereo not drawn) [Example 417, N-(6-(cyclopropylmethoxy)-2-(4-(2-(2-(2,6-dioxopiperidin-3-yl)-1,3-dioxoisoindolin-5-yl)-2,6-diazaspiro[3.5]nonan-6-yl)cyclohexyl)-2H-indazol-5-yl)pyrazolo[1,5-a]pyrimidine-3-carboxamide], the DC50 was under 1 nM, the Dmax is at least 90% and the “PBMC DC90” value is recorded as “A (A represents a DC90 value <10.0 nM)”.

On to `O=C1CCC(N2Cc3cc(N4CC(F)(CN5CCC(n6cc7cc(NC(=O)c8cnn9cccnc89)c(OCC8CC8)cc7n6)CC5)C4)cc(F)c3C2=O)C(=O)N1` (stereo not drawn) [Example 420, N-[6-(cyclopropylmethoxy)-2-[1-[[1-[2-(2,6-dioxo-3-piperidyl)-7-fluoro-1-oxo-isoindolin-5-yl]-3-fluoro-azetidin-3-yl]methyl]-4-piperidyl]indazol-5-yl]pyrazolo[1,5-a]pyrimidine-3-carboxamide], for which the DC50 is under 1 nM, the maximal degradation (Dmax) was at least 90% and the “PBMC DC90” value is “A (A represents a DC90 value <10.0 nM)”.

As for `O=C1CCC(N2Cc3cc(N4CC(F)(CN5CCC(n6cc7cc(NC(=O)c8cnn9cccnc89)c(OCC8CC8)cc7n6)CC5)C4)c(F)cc3C2=O)C(=O)N1` (stereo not drawn) [Example 421], the DC50 is under 1 nM, the Dmax was in the range of 80 to 90% and the “PBMC DC90” value was “A (A represents a DC90 value <10.0 nM)”.

As a reminder, the DC50 is the concentration at which degradation of the target reaches its halfway point. What is called Dmax is the greatest extent of degradation seen. Lower therefore signals shallow degradation.
